In data set [1] the test system is carboxypeptidases of the M type (CPM). The conditions noted are these: cited from earlier work.
The test system of data set [2] is carboxypeptidases of the N type (CPN). The conditions noted are these: cited from earlier work.
Data set [3] deals with angiotensin converting enzyme (ACE). Briefly: Purified ACE from rabbit lungs (Sigma, St. Louis, Mo.) dissolved in PBS (50 mM, pH 7.5, containing 300 mM NaCl and 10 μM ZnCl2). As to conditions: 37° C., up to 60 min.
The nature of data set [4]: human plasma as a source of aminopeptidase M (AmM). The conditions noted are these: up to 60 min.
Data set [5] concerns the target T1, BKB1 receptor (Homo sapiens, UniProt P46663).
T1 sequence (P46663 1-353): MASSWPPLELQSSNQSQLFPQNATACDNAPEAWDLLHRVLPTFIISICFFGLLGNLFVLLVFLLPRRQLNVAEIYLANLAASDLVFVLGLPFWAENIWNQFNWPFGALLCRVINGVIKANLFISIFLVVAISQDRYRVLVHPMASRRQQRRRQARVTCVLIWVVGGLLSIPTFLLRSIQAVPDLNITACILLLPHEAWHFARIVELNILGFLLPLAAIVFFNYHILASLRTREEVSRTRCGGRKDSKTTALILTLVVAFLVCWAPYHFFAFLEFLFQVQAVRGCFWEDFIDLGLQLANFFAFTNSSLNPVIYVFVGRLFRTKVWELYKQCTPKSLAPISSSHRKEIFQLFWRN
Briefly: Isolated human umbilical vein (hUV) organ bath, antagonist potency pA2. The arrangement: the hUV that contains BKB1 and BKB2 receptors; from tissue; host or cells: isolated human umbilical vein (hUV). In kind it is cell-based. On the procedure:
(§1) Selected antagonists were tested for activities in three isolated organs: (1) the rabbit aorta (rbA), (2) the human umbilical vein (hUV) and (3) the rabbit jugular vein (rbJV).
(§2) All details regarding the procurements of human umbilical cords and rabbit vessels as well as, the procedures for preparing the isolated organs and the experimental protocols are described in these respective publications: rbA (Rioux et al. 1973, Can J Physiol Pharmacol 51, 114–121); hUV (Gobeil et al. 1996, Br J Pharmacol 118, 289–294), and rbJV (Gaudreau et al. 1981, Can J Physiol Pharmacol 59, 371–379).
(§3) The rabbit jugular vein (a pure BKB2 receptor system) was used to exclude any action of the new compounds on the BKB2 receptor and thus establish their selectivity. All tissues were treated with captopril (1 μM) to prevent the degradation of the peptidic agonists.
(§4) Repeated applications of a single and double concentration of BK (on rbJV,) or of desArg^9BK (rbA and hUV) were made in the absence and in presence of the various peptides to evaluate their apparent affinities as antagonists, in terms of pA2 (-log10 of the molar concentration of antagonist that reduces the effect of a double concentration of agonist to that of a single one) (Schild 1947, Br J Pharmacol 2, 189–206).

Another data set has as its target T2, aminopeptidase M (AmM) (Homo sapiens, UniProt P15144).
T2 construct: incubated for 60 min with 50 μl of human plasma; from tissue; host or cells: human plasma from heparinized blood of healthy male volunteers
Briefly: In vitro metabolic stability against human plasma AmM. In kind it is in vitro ADME. As to conditions: male, human plasma as source of aminopeptidase M, pH 7.5, peptide 200 μM, 60 min incubation, mean ± SEM of 3, read-out: Peptide metabolism (%) Human plasma AmM. On the procedure:
(§5) These assays were performed using three enzyme preparations: purified angiotensin converting enzyme (ACE; from rabbit lung), human plasma as a, source of aminopeptidase M (AmM) and human platelets as a source of aminopeptidase P (AmP).
Human plasma AmM was prepared as previously described (Gobeil et al., 1999, Hypertension, 33, 823–829). Blood (5 ml) was withdrawn from healthy normotensive male Caucasian volunteers and put into heparinized tube (200 U). Blood samples were centrifuged at 1500 rpm for 15 min in a refrigerated tabletop centrifuge. The peptide antagonists (200 μM) were placed in a PBS buffer (50 mM, pH 7.5, containing 300 mM NaCl) and incubated for 60 min with 50 μl of human plasma (total volume of the medium, 375 μl). Immersing samples into boiling water and then cooling them on ice stopped the hydrolysis reaction. Control experiments have shown that ≈70% of the kininase activity that is present in the human plasma is abolished by amastatin (1 μM) and that the incubation of Lys-[Leu^8]desArg^9BK with this enzymatic preparation led to the production of [Leu^8]desArg^9BK as detected by electrospray mass spectrometry.

Data set [6] deals with T3, angiotensin converting enzyme (ACE) (Oryctolagus cuniculus, UniProt P12822).
T3 construct: In Vitro Biochemical Stability Assays Against Purified Native Enzymes; purchased Sigma, St. Louis, Mo; host or cells: rabbit lung
T3 sequence (P12822 34-1310): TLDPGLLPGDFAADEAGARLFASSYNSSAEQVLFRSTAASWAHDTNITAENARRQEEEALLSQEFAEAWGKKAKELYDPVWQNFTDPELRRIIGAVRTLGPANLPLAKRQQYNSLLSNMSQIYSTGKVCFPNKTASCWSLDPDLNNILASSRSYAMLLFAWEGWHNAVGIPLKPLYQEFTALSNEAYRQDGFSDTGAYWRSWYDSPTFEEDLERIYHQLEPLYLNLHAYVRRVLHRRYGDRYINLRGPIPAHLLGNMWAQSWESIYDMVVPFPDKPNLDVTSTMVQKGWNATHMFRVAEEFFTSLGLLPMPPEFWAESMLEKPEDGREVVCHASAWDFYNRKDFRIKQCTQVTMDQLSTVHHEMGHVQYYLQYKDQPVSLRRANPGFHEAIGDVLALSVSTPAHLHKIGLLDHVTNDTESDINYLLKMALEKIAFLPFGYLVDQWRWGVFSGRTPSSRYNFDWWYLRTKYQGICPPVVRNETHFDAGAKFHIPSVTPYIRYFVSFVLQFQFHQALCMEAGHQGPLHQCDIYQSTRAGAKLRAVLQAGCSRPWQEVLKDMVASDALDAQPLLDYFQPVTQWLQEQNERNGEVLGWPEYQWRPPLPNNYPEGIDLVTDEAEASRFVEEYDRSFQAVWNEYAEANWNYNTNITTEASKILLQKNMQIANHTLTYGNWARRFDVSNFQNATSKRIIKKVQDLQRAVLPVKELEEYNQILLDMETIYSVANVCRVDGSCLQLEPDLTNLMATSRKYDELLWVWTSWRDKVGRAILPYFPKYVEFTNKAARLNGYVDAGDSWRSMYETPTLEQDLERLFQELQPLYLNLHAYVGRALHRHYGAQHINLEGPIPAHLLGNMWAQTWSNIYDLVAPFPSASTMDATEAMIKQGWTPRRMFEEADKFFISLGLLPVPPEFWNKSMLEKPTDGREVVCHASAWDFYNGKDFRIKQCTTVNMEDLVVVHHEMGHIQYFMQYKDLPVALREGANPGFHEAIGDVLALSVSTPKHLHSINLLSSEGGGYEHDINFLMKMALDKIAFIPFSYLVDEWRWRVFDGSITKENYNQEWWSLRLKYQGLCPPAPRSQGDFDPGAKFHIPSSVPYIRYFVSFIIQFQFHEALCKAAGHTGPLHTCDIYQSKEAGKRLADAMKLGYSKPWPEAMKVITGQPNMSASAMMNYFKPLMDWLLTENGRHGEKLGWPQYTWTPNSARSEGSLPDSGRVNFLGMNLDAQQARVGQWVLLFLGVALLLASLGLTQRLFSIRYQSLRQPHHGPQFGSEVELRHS
Briefly: In vitro metabolic stability against purified rabbit lung ACE. In kind it is in vitro ADME. As to conditions: purified angiotensin converting enzyme from rabbit lung, pH 7.5, peptide 200 μM, 60 min at 37° C., mean ± SEM of 3, read-out: Peptide metabolism (%) Rabbit lung ACE. How it is done:
as §5
Purified ACE from rabbit lungs (Sigma, St. Louis, Mo.) was dissolved in PBS (50 mM, pH 7.5, containing 300 mM NaCl and 10 μM ZnCl2; the final concentration of ACE was 45 μg/ml). Each of the peptide antagonists (200 μM) was incubated for 60 min at 37° C. with ACE (8.5 μl) (total volume medium, 187.5 μl). The enzymatic reaction was then terminated by boiling.
The experimental protocol for the measurement of ACE activity has been described elsewhere (Drapeau et a). 1993, J Pharmacol Exp Ther 266, 192–198; Gobeil et al., 1996, supra).

For another data set, the target named is T4, aminopeptidase P (AmP) (Homo sapiens, UniProt Q9NQW7).
T4 construct: from tissue; host or cells: human platelets, freeze-thawed and sonicated, 43 000 x g supernatant
T4 sequence (Q9NQW7 whole entry): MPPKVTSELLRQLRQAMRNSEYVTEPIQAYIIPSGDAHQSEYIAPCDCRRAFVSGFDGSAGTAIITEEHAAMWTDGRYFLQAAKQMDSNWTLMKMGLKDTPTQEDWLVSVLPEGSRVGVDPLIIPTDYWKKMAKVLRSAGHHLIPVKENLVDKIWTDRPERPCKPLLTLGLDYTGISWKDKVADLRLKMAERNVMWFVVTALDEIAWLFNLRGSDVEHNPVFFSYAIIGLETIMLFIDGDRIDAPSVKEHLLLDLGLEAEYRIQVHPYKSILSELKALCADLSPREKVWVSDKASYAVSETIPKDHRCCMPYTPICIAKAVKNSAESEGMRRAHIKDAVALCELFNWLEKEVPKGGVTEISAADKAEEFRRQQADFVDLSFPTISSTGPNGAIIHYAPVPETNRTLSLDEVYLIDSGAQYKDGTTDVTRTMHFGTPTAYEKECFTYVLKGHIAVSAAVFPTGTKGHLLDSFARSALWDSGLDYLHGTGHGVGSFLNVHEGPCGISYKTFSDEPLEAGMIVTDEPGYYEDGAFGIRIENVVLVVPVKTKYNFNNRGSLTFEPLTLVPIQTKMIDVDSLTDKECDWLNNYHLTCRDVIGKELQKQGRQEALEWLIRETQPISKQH
Briefly: In vitro metabolic stability against human platelets AmP. Format: in vitro ADME. As to conditions: mean ± SEM of 3 experiments. On the procedure:
as §5
Human platelet AmP was prepared as described by Maggiora et al. (1999, J Med Chem 42, 2394–2402). Human platelets (40 ml) were centrifuged at 250×g for 7 min at room temperature. The resulting supernatant was recentrifuged at 2790×g for 15 min at room temperature. Pellets were collected, resuspended in 40 ml of phosphate-buffered saline (PBS) containing 3.5% of sodium citrate, and then re-centrifuged at 2790×g for 15 min at room temperature. This washing step was repeated. Pellets were resuspended in 4 ml of PBS-sodium citrate, snap-frozen in liquid nitrogen, thawed at 37° C., sonicated briefly, and then centrifuged at 43 000×g for 2 h at 4° C. (Sorvall RC 5B, ss-34 rotor). The resulting supernatant was used for enzyme assays as described in Neugebauer et al. (Neugebauer et al. 2002, supra).

The next data set deals with T5, BKB2 receptor (Oryctolagus cuniculus, UniProt Q28642).
T5 construct: The rabbit jugular vein (a pure BKB2 receptor system); from tissue; host or cells: isolated rabbit jugular vein (rbJV)
T5 sequence (Q28642 1-367): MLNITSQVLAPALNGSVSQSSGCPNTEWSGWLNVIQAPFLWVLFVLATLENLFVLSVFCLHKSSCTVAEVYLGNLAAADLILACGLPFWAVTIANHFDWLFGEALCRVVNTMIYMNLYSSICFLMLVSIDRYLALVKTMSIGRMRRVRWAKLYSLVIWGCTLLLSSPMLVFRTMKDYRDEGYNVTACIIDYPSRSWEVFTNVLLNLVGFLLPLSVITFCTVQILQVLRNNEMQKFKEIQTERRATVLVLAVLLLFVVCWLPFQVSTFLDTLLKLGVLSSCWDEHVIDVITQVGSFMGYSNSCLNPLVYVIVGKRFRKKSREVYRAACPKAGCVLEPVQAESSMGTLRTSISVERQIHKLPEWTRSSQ
Briefly: Isolated rabbit jugular vein (rbJV) organ bath, antagonist potency pA2. In kind it is cell-based. As to conditions: BK as agonist. On the procedure: as §1, §2, §3, §4

For data set [7], the target named is T6, BKB1 receptor (Oryctolagus cuniculus, UniProt P48748).
T6 construct: The rabbit aorta without endothelium (which contains only the BKB1 receptor); from tissue; host or cells: isolated rabbit aorta (rbA) without endothelium
T6 sequence (P48748 1-352): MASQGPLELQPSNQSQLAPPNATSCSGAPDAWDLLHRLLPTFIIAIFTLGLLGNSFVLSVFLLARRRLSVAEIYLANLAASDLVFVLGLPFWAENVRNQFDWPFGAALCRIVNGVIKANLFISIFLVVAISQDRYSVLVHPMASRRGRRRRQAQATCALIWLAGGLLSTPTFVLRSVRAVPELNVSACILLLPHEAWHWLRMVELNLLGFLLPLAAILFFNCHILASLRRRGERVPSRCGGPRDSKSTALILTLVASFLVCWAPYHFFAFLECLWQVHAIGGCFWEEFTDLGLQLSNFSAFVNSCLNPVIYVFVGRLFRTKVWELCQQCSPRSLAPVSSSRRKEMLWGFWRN
Briefly: Isolated rabbit aorta (rbA) organ bath, antagonist potency pA2. Format: cell-based. The conditions noted are these: rabbit aorta without endothelium; mean ± SEM of 4–7 experiments. How it is done:
as §1, §2
The rabbit aorta without endothelium (which contains only the BKB1 receptor) was used to determine the antagonistic activities of each compound.
as §3, §4

Ends that are not written are not given here.

We go through six compounds from patent publication US7211566B2 (Universite De Sherbrooke, priority 2003, dated 2007).

T2 sequence (P15144 whole entry): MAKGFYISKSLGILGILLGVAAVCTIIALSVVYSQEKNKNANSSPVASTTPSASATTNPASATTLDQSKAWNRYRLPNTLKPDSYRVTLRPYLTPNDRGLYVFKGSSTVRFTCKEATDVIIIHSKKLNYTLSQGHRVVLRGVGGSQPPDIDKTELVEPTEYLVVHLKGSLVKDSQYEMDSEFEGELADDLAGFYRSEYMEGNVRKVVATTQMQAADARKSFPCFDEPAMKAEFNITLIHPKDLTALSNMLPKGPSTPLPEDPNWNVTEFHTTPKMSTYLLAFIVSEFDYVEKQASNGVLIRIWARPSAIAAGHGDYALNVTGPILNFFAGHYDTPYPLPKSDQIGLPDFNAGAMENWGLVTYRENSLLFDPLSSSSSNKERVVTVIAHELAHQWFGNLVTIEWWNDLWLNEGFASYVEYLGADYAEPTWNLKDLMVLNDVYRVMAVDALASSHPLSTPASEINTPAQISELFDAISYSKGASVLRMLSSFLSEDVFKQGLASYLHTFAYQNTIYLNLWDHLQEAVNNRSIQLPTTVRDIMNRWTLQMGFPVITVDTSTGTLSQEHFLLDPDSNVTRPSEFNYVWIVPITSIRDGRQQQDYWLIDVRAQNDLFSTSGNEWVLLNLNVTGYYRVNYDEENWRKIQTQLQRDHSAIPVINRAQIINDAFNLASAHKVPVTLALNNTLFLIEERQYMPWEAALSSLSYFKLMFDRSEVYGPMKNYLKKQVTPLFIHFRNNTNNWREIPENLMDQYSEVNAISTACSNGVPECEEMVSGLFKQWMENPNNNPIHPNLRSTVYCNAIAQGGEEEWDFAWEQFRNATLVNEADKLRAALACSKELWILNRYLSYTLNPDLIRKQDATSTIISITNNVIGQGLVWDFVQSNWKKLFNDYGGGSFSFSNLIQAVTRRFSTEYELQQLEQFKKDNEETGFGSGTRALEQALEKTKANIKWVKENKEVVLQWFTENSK

As for RPPGFSPFR, the cleaved bond entry in data set [1] and in [2] was “Phe8-Arg9” in each case.

Regarding “Ac-Lys[Oic^2,(α-Me)Phe^5,D-βNal^7,Ile^8]desArg^9BK”, the not cleaved result in [3] and in data set [4] was “Peptide metabolism 0 % (60 min)” throughout.

As for `CC(C)C[C@H](NC(=O)[C@@H]1CCCN1C(=O)[C@H](CO)NC(=O)[C@H](Cc1ccccc1)NC(=O)CNC(=O)[C@@H]1CCCN1C(=O)[C@@H]1CCCN1C(=O)[C@H](CCCN=C(N)N)NC(=O)[C@@H](N)CCCCN)C(=O)O` [Lys-[Leu^8]desArg^9-BK, Lys-[Leu^8] desArg^9BK, reference compound], the “affinity higher than that of [Leu^8]desArg^9BK” value on BKB1 receptor [5] (BKB1 receptor antagonist affinity, effect of N-terminal Lys) is on record as “at least 1.5 log units”. In addition, the metabolised at 1 h, 200 µM on aminopeptidase M (AmM) is 100%; in data set [6], 93 ± 3%. Further, the “Peptide metabolism (%) Human platelets AmP” value on aminopeptidase P (AmP) came to 99 ± 1%.

Take Lys-[Leu^8] desArg^9BK: the cleaved bond entry in [3] is recorded as “Phe5-Ser6”. In addition, the fragment found result in data set [4] was “[Leu^8]desArg^9BK”.

Turning to “Ac-Orn[Oic^2,Oic^3(α-Me)Phe^5,D-βNal^7,Ile^8]desArg^9BK”, the “Antagonist potencies (pA2) BKB2-R rbJV” value at BKB2 receptor was <6.00. Also, on BKB1 receptor [7], the “Antagonist potencies (pA2) BKB1-R rbA” value is given as 8.30 ± 0.08.

“Ac-Lys-[D-βNal^7, Ile^8] desArg^9BK [Ac-Lys-[D-βNal^7, Ile^8]desArg^9-BK, reference compound]”: at BKB2 receptor, the “Antagonist potencies (pA2) BKB2-R rbJV” value is <6.00. Also, the “Antagonist potencies (pA2) BKB1-R hUV” value on BKB1 receptor [5] (human umbilical vein treated with HOE 140, mean ± SEM of 4–7 experiments) is listed as 8.49 ± 0.10. Also, the “Antagonist potencies (pA2) BKB1-R rbA” value at BKB1 receptor [7] is recorded as 8.40 ± 0.12.
